The MIC is the lowest concentration that inhibits growth of the organism.

Converted amounts (≈) assume the structure as drawn.

In one test the test system is Phytophthora infestans. The test can be described thus: whole plant or invertebrate. The test is classed as in vivo. As to conditions: Phytophthora infestans, in Solanum lycopersicum, 96 h, read-out: % control TLB.
A further test relates to Pseudomonas fluorescens. The test can be described thus: Minimum Inhibitory Concentration Test, alternate (Table 4), Ps.fl. The test is classed as cell-based. As to conditions: Pseudomonas fluorescens, TSB, 72 hours, 30° C. As to the method: (§1) A 125 μl aliquot of 10,000 ppm test compound in acetone was added to 4.88 ml of TSB to provide a 250 ppm solution. From this solution, 100 μL was transferred to the first row of two microtiter plate columns. Both replicates and five additional compounds were all serially diluted 1:1 to a final concentration of 0.8 ppm in TSB.
(§2) Inoculation was accomplished by diluting a 24 hr Ps fl culture, four mls per 36 mls of phosphate buffer solution. A Dynatech autoinoculator was used to transfer 1.5 μl of this cell suspension to the microtiter plates. The plates were incubated at 30° C. for 3 days before the lowest concentration at which no growth occurs was recorded in the database. The SOK data and MIC test data on Ps.fl, Ps.ae, E.c, and S.a. bacteria and Candida albicans (C.alb), A.n and A.p fungi are listed in Table 4.

Another test relates to A.n. The test can be described thus: Minimum Inhibitory Concentration Test, alternate (Table 4), A.n. The test is classed as cell-based, Aspergillus niger. As to conditions: Aspergillus niger, TSB, 72 hours. How it is done: as §1, §2
Test [1] deals with Erysiphe graminis (f. sp. tritici). The test can be described thus: whole plant or invertebrate. The test is classed as in vivo. The conditions noted are these: Blumeria graminis; read-out: % control WPM.
For test [2], the system named is Pellicularia filamentosa (f. sp. sasiki). The test can be described thus: whole plant or invertebrate. Format: in vivo. As to conditions: 120 h; read-out: % control RSB.
The next test deals with Piricularia oryzae. Put plainly: whole plant or invertebrate. The test is classed as in vivo. The conditions noted are these: Pyricularia oryzae, read-out: % control RB.
Test [3] deals with Puccinia recondita (f. sp. tritici Races PKB and PLD). Put plainly: whole plant or invertebrate. Format: in vivo. As to conditions: Puccinia recondita, 240 h; read-out: % control WLR.
Test [4] concerns Pseudoperonospora cubensis. The test can be described thus: whole plant or invertebrate. Format: in vivo. As to conditions: Pseudoperonospora cubensis, in Cucumis sativus, 168 h; read-out: % control CDM.

Take `CCCCCCCCNC(=O)/C=C\SC(C(=O)Nc1ccc(OC)cc1)C(=O)OCC` (stereo not drawn) [Example 58, N-n-octyl-cis-3-{2-[ethyl-N-(4-methoxyphenyl)malonamido]thio}acrylamide]: the pest or weed control at 100 ppm was found to be 0% in the test on Phytophthora infestans; 0% in test [1]; 0% in test [2]; 0% in the test on Piricularia oryzae; 0% in test [3]; 100% in test [4]. The values for the MIC in the test on Pseudomonas fluorescens and in the test on A.n were above 500 mg/L and 250 mg/L (≈ 555 µM), respectively.
For the compound `CCCCCCCCNC(=O)/C=C\SC(C(=O)NCCCCCC#N)C(=O)OCC` (stereo not drawn) [Example 27, N-n-octyl-cis-3-{2-[ethyl-N-(5-cyanopentyl)malonamido]thio}acrylamide], the pest or weed control at 200 ppm with Phytophthora infestans amounted to 100%; in test [1], 0%; in test [2], 0%; in the test with Piricularia oryzae, 98%; in test [4], 100%. In addition, the MIC in the test on Pseudomonas fluorescens and against A.n was above 500 mg/L throughout.
Turning to `CCCCCCCCNC(=O)/C=C\SC(C(=O)Nc1ccccn1)C(=O)OCC` (stereo not drawn) [Example 44, N-n-octyl-cis-3-{2-[ethyl-N-(2-pyridyl)malonamido]thio}acrylamide], the pest or weed control at 100 ppm in the test with Phytophthora infestans was 0%; in test [1], 0%; in test [2], 0%; with Piricularia oryzae, 50%; in test [3], 75%. For the same compound, the values for the MIC in the test on Pseudomonas fluorescens and against A.n were above 500 mg/L and 250 mg/L (≈ 593 µM), respectively.
Consider `CCCCCCCCNC(=O)/C=C\SC(C(=O)NCC(C)C)C(=O)OCC` (stereo not drawn) [Example 14, N-n-octyl-cis-3-[2-(ethyl-N-(2-methylpropyl)malonamido)thio]acrylamide], for which the pest or weed control at 200 ppm in the test with Phytophthora infestans is 50%; in test [1], 75%; in test [2], 0%; in the test with Piricularia oryzae, 0%; in test [3], 50%; in test [4] it was 95%.
Regarding `CCCCCCCCNC(=O)/C=C\SC(C(=O)NCCCC)C(=O)OCC` (stereo not drawn) [Example 13, N-n-octyl-cis-3-[2-(ethyl-N-n-butylmalonamido)thio]acrylamide], the pest or weed control at 200 ppm in the test with Phytophthora infestans came to 80%; in test [1], 75%; in test [2], 0%; with Piricularia oryzae, 50%; in test [3] it was 50%; in test [4], 99%.
For `CCCCCCCCNC(=O)/C=C\SC(C(=O)Nc1cc(Cl)ccc1OC)C(=O)OCC` (stereo not drawn) [Example 46, N-n-octyl-cis-3-{2-[ethyl-N-(2-methoxy-5-chlorophenyl)malonamido]thio}acrylamide], the pest or weed control at 100 ppm with Phytophthora infestans came out at 0%; in test [1], 0%; in test [2] it was 50%; in the test with Piricularia oryzae, 80%; in test [3], 50%. Also, the MIC against Pseudomonas fluorescens was above 500 mg/L; in the test with A.n, 250 mg/L (≈ 515 µM).
As for `CCCCCCCCNC(=O)/C=C\SC(C(=O)Nc1ccc(Cl)cc1C#N)C(=O)OCC` (stereo not drawn) [Example 43, N-n-octyl-cis-3-{2-[ethyl-N-(2-cyano-4-chlorophenyl)malonamido]thio}acrylamide], the pest or weed control at 100 ppm in the test with Phytophthora infestans worked out at 80%; in test [1], 50%; in test [2], 0%; in the test with Piricularia oryzae, 100%; in test [3], 75%; in test [4] it was 100%.

Values taken from patent publication US5118681A (priority 1989, dated 1992).
